Results: ChEMBL document CHEMBL5647697, “Akt inhibition synergizes with polycomb repressive complex 2 inhibition in the treatment of multiple myeloma” (2019)

Tests used:
Format in all cases: functional
[1] = test system: MM1.S; assay: Induction of apoptosis in human MM1.S cells assessed as necrotic cells at 5 micromol/L incubated for 48 hrs by annexin V/PI staining based flow cytometry (reference value: 0.17%); conditions: dose 5 µmol/L, at 5 µM
[2] = test system: MM1.S; assay: Induction of apoptosis in human MM1.S cells assessed as late apoptotic cells at 5 micromol/L incubated for 48 hrs by annexin V/PI staining based flow cytometry (reference value: 3.6%); conditions: dose 5 µmol/L, at 5 µM
[3] = test system: MM1.S; assay: Induction of apoptosis in human MM1.S cells assessed as early apoptotic cells at 5 micromol/L incubated for 48 hrs by annexin V/PI staining based flow cytometry (reference value: 8.03%); conditions: dose 5 µmol/L, at 5 µM
[4] = test system: MM1.S; assay: Induction of apoptosis in human MM1.S cells assessed as viable cells at 5 micromol/L incubated for 48 hrs by annexin V/PI staining based flow cytometry (reference value: 88.2%); conditions: dose 5 µmol/L, read-out: Activity

**Q.** What does the source list for CCCc1cc(C)[nH]c(=O)c1CNC(=O)c1cc(-c2ccc(N3CCN(C(C)C)CC3)nc2)cc2c1cnn2C(C)C?
**A.** Activity [1]: 0.41%; Activity [2]: 15.9%; Activity [3]: 18.8%; viability at 5 µM [4]: 64.9%
